Values of other authors, collected in patent US6303141A, “Transdermally administrable medicament with ACE inhibitors” (Hexal AG, priority 1995, dated 2001).

Conditions: in vivo

| oral bioavailability | Compound |
| --- | --- |
| approximately 70% | C[C@H](CS)C(=O)N1CCC[C@H]1C(=O)O [captopril] |
| 28% | CCOC(=O)[C@H](CCc1ccccc1)N[C@H]1CCc2ccccc2N(CC(=O)O)C1=O [benazepril] |
